In US20260166046A1, “Inhibitors of methionine aminopeptidase-2 and methods of preparation and uses thereof” (Primetime Life Sciences LLC, priority 2022, published 2026):

Experiments:
[1] = in vivo; cited from earlier work
Recombinant human MetAP2 = molecular target: T1, Recombinant human MetAP2 (Homo sapiens, UniProt P50579); test: MetAP2 fluorescence assay; format: biochemical; details: recombinant human MetAP2, H-Met-Gly-Pro-AMC substrate
T1 construct: purchased Bio-Techne/R&D systems
Method: MetAP2 Fluorescence Assay
Recombinant human MetAP2 (Bio-Techne/R&D systems) was diluted to 10 μg/mL in the assay buffer (50 mM HEPES, 0.1 mM CoCl2, 100 mM NaCl, pH 7.5). The substrate, H-Met-Gly-Pro-AMC (Bio-Techne/R&D systems), was diluted to 500 μM with 2 μg/mL of the coupling enzyme, recombinant human dipeptidyl peptidase-4 (Bio-Techne/R&D systems), in assay buffer. 50 μL of 10 μg/mL recombinant human METAP2 were loaded into a flat-bottom black 96-well plate (Greiner Bio), and the reaction was initiated by adding 50 μL of the substrate/dipeptidyl peptidase-4 mixture. The reaction mixture was incubated at room temperature for 10 minutes, and the fluorescence was measured for 5 minutes at excitation and emission wavelengths of 380 nm and 460 nm, respectively, in kinetic mode. For IC50determination, 0.5 μL inhibitor solution was added to the reaction mixture. The reaction rates were used to calculate IC50with KaleidaGraph.

G. lamblia GS = test: Trophozoite viability IC50 determination, Giardia assay (ATPLite); format: cell-based; details: Giardia duodenalis, 72 h, read-out: Cell viability values Mean IC50 (nM) G. lamblia GS
Method: (§1) Giardia cultures: Trophozoites of G. lamblia isolates WB and GS were grown anaerobically in borosilicate glass screw-cap culture tubes (Fisher Scientific) at pH 7.0 in modified TYI-S-33 medium. The medium was supplemented with 10% heat-inactivated bovine serum (Sigma-Aldrich) and 0.05% bovine bile (Sigma-Aldrich). To attain low-oxygen-tension conditions, the tubes were filled to 85 to 90% of their total volume capacity and incubated without shaking at 37° C. Subcultures (2×10^5 trophozoites per tube) were made three times a week. Detachment of trophozoites for inoculation was achieved by chilling the cultures on ice for 20 min. Culturing and detachment of Metronidazole-resistant G. lamblia Assemblage A 713M3 and assemblage B 1279-M1 trophozoites followed the same protocol, except that the growth medium was supplemented with metronidazole gradually increasing the concentration to 10 μM. Amebae cultures: E. histolytica strain HM1:IMSS trophozoites were grown at 37° C. in TYI-S-33 medium supplemented with penicillin (100 U/mL) and streptomycin sulfate (100 μg/mL). Trophozoites were grown anaerobically in borosilicate tubes and subcultures were made 1-2 times a week. Trophozoites were detached for inoculation by chilling the cultures on ice for 20 minutes.
(§2) Trophozoite viability IC50determination
(§3) Giardia assays: 10 μL giardia trophozoites in growth medium were plated at a density of 10,000 cells/well in sterile 96-well black clear bottom assay plates. Fumagillin and fumagillol derivatives were 1:3 serially diluted from a 1 μM DMSO stock solution and then 100 μL/well were transferred in duplicate to the assay wells. Metronidazole (control) was 1:3 serially diluted in growth medium from a 100 μM stock solution in DMSO. The assay plates were placed in a BD GasPak™ EZ Container System (BD Diagnostics) to create an anaerobic growth environment. The sealed containers were incubated at 37° C. for 72 hr. Following incubation, 70 μL/well of the ATPLite reagent (PerkinElmer) was added to the assay plates for one-step lysis and ATP level detection. The luminescent signals of the assay plates were measured on an EnSpire 2300 plate reader (PerkinElmer). Concentration response titration points for each compound were fitted to a 4-parameters logistic nonlinear regression model using KaleidaGraph, yielding the IC50value and standard error (SE).

G. lamblia WB = test: as above; format: cell-based; details: Giardia duodenalis, 72 h, read-out: Cell viability values Mean IC50 (nM) G. lamblia WB
Method: as §1, §2, §3

E. histolytica HM1: IMSS = test: Trophozoite viability IC50 determination, Amebae assay (ATPLite); format: cell-based; details: Entamoeba histolytica, 72 h, read-out: Cell viability values Mean IC50 (nM) E. histolytica HM1: IMSS
Method: as §1, §2, §3
Amebae assays: The protocol is identical to that described above except that the trophozoites were plated at a density of 5000 cells/well because of their larger size.

T1 sequence (P50579 whole entry): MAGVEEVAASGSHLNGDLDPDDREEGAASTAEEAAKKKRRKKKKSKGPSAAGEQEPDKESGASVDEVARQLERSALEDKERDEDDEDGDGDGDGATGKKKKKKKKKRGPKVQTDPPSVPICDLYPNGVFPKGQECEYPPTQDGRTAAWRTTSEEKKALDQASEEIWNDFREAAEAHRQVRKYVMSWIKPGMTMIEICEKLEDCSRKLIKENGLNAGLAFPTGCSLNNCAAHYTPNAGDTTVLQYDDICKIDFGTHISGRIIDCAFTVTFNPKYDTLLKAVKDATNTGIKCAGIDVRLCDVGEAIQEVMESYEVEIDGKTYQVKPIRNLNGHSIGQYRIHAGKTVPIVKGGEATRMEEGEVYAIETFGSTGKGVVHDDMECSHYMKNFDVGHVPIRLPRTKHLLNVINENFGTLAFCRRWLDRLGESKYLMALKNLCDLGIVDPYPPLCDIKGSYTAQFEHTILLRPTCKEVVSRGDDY

SMILES | body weight loss [1] | immune-compromised patients with reversible toxic effect on bone marrow (primarily Thrombocytopenia) [1] | spontaneous platelet count recovery after halting therapy [1] | IC50 (Recombinant human MetAP2) | IC50 (G. lamblia GS) | IC50 (G. lamblia WB) | IC50 (E. histolytica HM1: IMSS)
CO[C@@H]1[C@H](OC(=O)/C=C/C=C/C=C/C=C/C(=O)O)CC[C@]2(CO2)[C@H]1[C@@]1(C)O[C@@H]1CC=C(C)C [Fumagillin] | > 15% | 33% | 1-2 weeks |  |  |  | 
CO[C@@H]1[C@H](OC(=O)Nc2cc(Cl)c3c(c2)B(O)OC3)CC[C@]2(CO2)[C@H]1[C@@]1(C)O[C@@H]1CC=C(C)C [No 10] |  |  |  | < 10 nM | 10.1 to 100 nM | 10.1 to 100 nM | 10.1 to 100 nM
CO[C@@H]1[C@H](OC(=O)Nc2cc(B(O)O)cc(F)n2)CC[C@]2(CO2)[C@H]1[C@@]1(C)O[C@@H]1CC=C(C)C [No 50] |  |  |  | < 10 nM | 10.1 to 100 nM | > 1000 nM | > 1000 nM
CO[C@@H]1[C@H](OC(=O)Nc2cc(B(O)O)ccc2Cl)CC[C@]2(CO2)[C@H]1[C@@]1(C)O[C@@H]1CC=C(C)C [No 23] |  |  |  | < 10 nM | 101 to 1000 nM | 101 to 1000 nM | 101 to 1000 nM
CO[C@@H]1[C@H](OC(=O)NCc2ccc(B(O)O)o2)CC[C@]2(CO2)[C@H]1[C@@]1(C)O[C@@H]1CC=C(C)C [No 55] |  |  |  | < 10 nM | 101 to 1000 nM | > 1000 nM | > 1000 nM
